The test system of test [1] is lung (H460) tumor cell line. The experiment in a line: Methylene Blue Growth Inhibition Assay, H460. Type of test: cell-based. Conditions: Homo sapiens, NCI-H460, 72 h; Cell Line H460, 3 days; read-out: MeB IC50. The method, boiled down: (§1)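 3-day compound exposure, 0.3% DMSO, 37° C/10% CO2; DMEM + 10% FBS. Seeding: HFF 5,000, RKO 2,500, H460 2,000 cells/well. Readout methylene blue stain, solubilized in N-lauroyl sarcosine, OD 620 nm. IC50 vs vehicle, Levenberg-Marquardt fit.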

Test [2] relates to colon (RKO) tumor cell line. Nature of the test: Methylene Blue Growth Inhibition Assay, RKO. It is filed as cell-based. The conditions noted are these: Homo sapiens, 72 h, 3 days, read-out: MeB IC50. The gist of the method:
as §1

In test [3] the test system is colon (HCT116) tumor cell line. Nature of the test: Methylene Blue Growth Inhibition Assay, HCT116. Type of test: cell-based. Conditions: Homo sapiens, HCT-116, 72 h; Cell Line HCT116, 3 days; read-out: MeB IC50. The method, boiled down:
(§2)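 Growth inhibition is measured as methylene blue-stained biomass (OD 620 nm) after 3 days of compound treatment, relative to vehicle controls. Cells grow in high-glucose DMEM with 10% FBS and 0.3% final DMSO; IC50 comes from nonlinear regression.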

For test [4], the system named is prostate (PC3) tumor cell line. Nature of the test: Methylene Blue Growth Inhibition Assay, PC3. It is filed as cell-based. Conditions: Homo sapiens, 72 h; Cell Line PC3, 3 days; read-out: MeB IC50. The method, boiled down: as §2
Test [5] deals with Normal Human foreskin fibroblasts (HFF). The experiment in a line: Methylene Blue Growth Inhibition Assay, HFF. Type of test: cell-based. The conditions noted are these: 72 h, Cell Line HFF, 3 days, read-out: MeB IC50. The method, boiled down: as §1
The target of the next test is T1, PLK1 kinase domain (Homo sapiens, UniProt P53350).
T1 construct: made in house; host or cells: baculovirus-infected T. ni insect cells
The experiment in a line: Assay for Inhibition of PLK1 (SPA enzyme activity). Type of test: biochemical. Conditions: 2 μM ATP, read-out: Ave pIC50 PLK Enzyme Inhibition (converted).

Test [6] has as its system breast tumor (MCF7) cell line. Nature of the test: Methylene Blue Growth Inhibition Assay, MCF7. Type of test: cell-based. The conditions noted are these: Homo sapiens, 72 h; Cell Line MCF7, 3 days; read-out: MeB IC50. The method, boiled down:
as §2

Bounds are passed on as bounds.

T1 sequence (P53350 21-346): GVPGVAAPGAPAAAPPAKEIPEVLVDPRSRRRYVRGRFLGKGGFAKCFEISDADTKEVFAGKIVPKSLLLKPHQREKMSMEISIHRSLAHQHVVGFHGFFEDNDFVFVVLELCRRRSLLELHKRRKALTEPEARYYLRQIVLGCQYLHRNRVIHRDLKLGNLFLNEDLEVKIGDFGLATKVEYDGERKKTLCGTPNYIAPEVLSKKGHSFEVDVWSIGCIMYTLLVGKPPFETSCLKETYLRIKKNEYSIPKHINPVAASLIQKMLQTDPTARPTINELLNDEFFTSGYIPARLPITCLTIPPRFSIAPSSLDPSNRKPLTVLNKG

Turning to `O=C(O)c1sc(-n2cnc3cc(Cl)c(Cl)cc32)cc1OCc1ccsc1` [Example 79], the IC50 was > 10 µM in test [1]; > 10 µM in test [2]; > 10 µM in test [3]; > 10 µM in test [4]; > 10 µM in test [5]; < 0.1 µM at PLK1 kinase domain. For the same molecule, in test [6], the IC50 is > 10 µM.
Take `NC(=O)c1sc(-n2cnc3ccc(Br)cc32)cc1OCc1ccccc1C(F)(F)F` [Example 62, 5-(6-Bromo-1H-benzimidazol-1-yl)-3-{[2-(trifluoromethyl)benzyl]-oxy}thiophene-2-carboxamide]: the IC50 is < 1 µM in test [1]; < 1 µM in test [2]; < 1 µM in test [3]; > 10 µM in test [4]; 1 to 10 µM in test [5]; < 0.1 µM at PLK1 kinase domain. Also, in test [6], the IC50 is < 1 µM.
For `O=C(O)c1sc(-n2cnc3cc(Cl)c(Cl)cc32)cc1OCc1ccoc1` [Example 77, 5-(5,6-Dichloro-1H-benzimidazol-1-yl)-3-(3-furylmethoxy)thiophene-2-carboxylic acid], the IC50 in test [1] is > 10 µM; in test [2] it was > 10 µM; in test [3] it was > 10 µM; in test [4], > 10 µM; in test [5] it was > 10 µM; at PLK1 kinase domain, < 0.1 µM. Besides, in test [6], the IC50 was > 10 µM.
In the case of `COc1cc2ncn(-c3cc(OCc4ccccc4[N+](=O)[O-])c(C(N)=O)s3)c2cc1OC` [Example 92, 5-(5,6-Dimethoxy-1H-benzimidazol-1-yl)-3-[(2-nitrobenzyl)oxy]thiophene-2-carboxamide], the IC50 in test [1] was < 1 µM; in test [2], < 1 µM; in test [3], < 1 µM; in test [4], 1 to 10 µM; in test [5], 1 to 10 µM; on PLK1 kinase domain, < 0.1 µM. In addition, the IC50 in test [6] was < 1 µM.
In the case of `COc1cc2ncn(-c3cc(OCCN4CCOCC4)c(C(N)=O)s3)c2cc1OC` [Example 113, 5-(5,6-Dimethoxy-1H-benzimidazol-1-yl)-3-(2-morpholin-4-ylethoxy)thiophene-2-carboxamide], the IC50 in test [1] is > 10 µM; in test [2], > 10 µM; in test [3], > 10 µM; in test [4], > 10 µM; in test [5] it was > 10 µM; on PLK1 kinase domain, 0.1 to 10 µM. Also, in test [6], the IC50 is > 10 µM.
Turning to `CS(=O)(=O)Nc1ccc2ncn(-c3cc(OCc4ccccc4C(F)(F)F)c(C(N)=O)s3)c2c1` [Example 122, 5-{6-[(Methylsulfonyl)amino]-1H-benzimidazol-1-yl}-3-{[2-(trifluoromethyl)benzyl]-oxy}thiophene-2-carboxamide], the IC50 in test [1] was 1 to 10 µM; in test [2] it was 1 to 10 µM; in test [3], 1 to 10 µM; in test [4], > 10 µM; in test [5], > 10 µM; on PLK1 kinase domain it was < 0.1 µM. The IC50 in test [6] fell in the range of 1 to 10 µM.
On to `O=C(O)c1sc(-n2cnc3cc(Cl)c(Cl)cc32)cc1OCc1cccs1` [Example 80, 5-(5,6-Dichloro-1H-benzimidazol-1-yl)-3-(thien-2-ylmethoxy)-thiophene-2-carboxylic acid], for which the IC50 is > 10 µM in test [1]; > 10 µM in test [2]; > 10 µM in test [3]; > 10 µM in test [4]; > 10 µM in test [5]; < 0.1 µM at PLK1 kinase domain. Also, the IC50 in test [6] was > 10 µM.
On to `NC(=O)c1sc(-n2cnc3ccc(C(F)(F)F)cc32)cc1OCc1ccccc1Br` [Example 119, 3-[(2-Bromobenzyl)oxy]-5-[6-(trifluoromethyl)-1H-benzimidazol-1-yl]thiophene-2-carboxamide], for which the IC50 is 1 to 10 µM in test [1]; 1 to 10 µM in test [2]; 1 to 10 µM in test [3]; > 10 µM in test [4]; > 10 µM in test [5]; < 0.1 µM at PLK1 kinase domain. The IC50 in test [6] lay within 1 to 10 µM.
As for `COc1cc2ncn(-c3cc(OCc4cccc(I)c4)c(C(N)=O)s3)c2cc1OC` [Example 94], the IC50 is 1 to 10 µM in test [1]; 1 to 10 µM in test [2]; 1 to 10 µM in test [3]; 1 to 10 µM in test [4]; 1 to 10 µM in test [5]; < 0.1 µM on PLK1 kinase domain. Also, the IC50 in test [6] is 1 to 10 µM.
In the case of `NC(=O)c1sc(-n2cnc3ccc(OCCN4CCOCC4)cc32)cc1OCc1ccccc1C(F)(F)F` [Example 138, 5-[6-(2-Morpholin-4-ylethoxy)-1H-benzimidazol-1-yl]-3-{[2-(trifluoromethyl)benzyl]oxy}thiophene-2-carboxamide], the IC50 in test [1] is < 1 µM; in test [2] it was < 1 µM; in test [3], 1 to 10 µM; in test [4] it was > 10 µM; in test [5], 1 to 10 µM; on PLK1 kinase domain, < 0.1 µM. In test [6], the IC50 was 1 to 10 µM.
With `CS(=O)(=O)CCNC(=O)c1ccc2c(c1)ncn2-c1cc(OCc2ccccc2C(F)(F)F)c(C(N)=O)s1` [Example 155, 1-(5-(Aminocarbonyl)-4-{[2-(trifluoromethyl)benzyl]oxy}thien-2-yl)-N-[2-(methylsulfonyl)ethyl]-1H-benzimidazole-5-carboxamide], the IC50 in test [1] is > 10 µM; in test [2], > 10 µM; in test [3], > 10 µM; in test [4] it was > 10 µM; in test [5], > 10 µM; at PLK1 kinase domain, < 0.1 µM. The IC50 in test [6] was > 10 µM.
Turning to `NC(=O)c1sc(-n2cnc3ccccc32)cc1NCc1ccccc1C(F)(F)F` [Example 133, 5-(1H-Benzimidazol-1-yl)-3-{[2-(trifluoromethyl)benzyl]amino}-thiophene-2-carboxamide], the IC50 in test [1] is > 10 µM; in test [2], 1 to 10 µM; in test [3] it was 1 to 10 µM; in test [4], > 10 µM; in test [5] it was > 10 µM; at PLK1 kinase domain, 0.1 to 10 µM. Further, the IC50 in test [6] was > 10 µM.
For the molecule `COc1cc2ncn(-c3cc(OCc4ccccc4SC)c(C(N)=O)s3)c2cc1OC` [Example 97], the IC50 is 1 to 10 µM in test [1]; 1 to 10 µM in test [2]; 1 to 10 µM in test [3]; 1 to 10 µM in test [4]; 1 to 10 µM in test [5]; < 0.1 µM at PLK1 kinase domain. In test [6], the IC50 fell in the range of 1 to 10 µM.
Regarding `COc1ccc(COc2cc(-n3cnc4cc(OC)c(OC)cc43)sc2C(N)=O)cc1` [Example 128, 5-(5,6-Dimethoxy-1H-benzimidazol-1-yl)-3-[(4-methoxybenzyl)oxy]thiophene-2-carboxamide], the IC50 is 1 to 10 µM in test [1]; 1 to 10 µM in test [2]; > 10 µM in test [3]; > 10 µM in test [4]; > 10 µM in test [5]; 0.1 to 10 µM at PLK1 kinase domain. Moreover, the IC50 in test [6] lay in the range of 1 to 10 µM.
Regarding `NC(=O)c1sc(-n2cnc3cc(F)c(OCCN4CCOCC4)cc32)cc1OCc1ccccc1C(F)(F)F` [Example 140, 5-[5-Fluoro-6-(2-morpholin-4-ylethoxy)-1H-benzimidazol-1-yl]-3-{[2-(trifluoromethyl)benzyl]oxy}thiophene-2-carboxamide], the IC50 was 1 to 10 µM in test [1]; < 1 µM in test [2]; 1 to 10 µM in test [3]; 1 to 10 µM in test [4]; > 10 µM in test [5]; < 0.1 µM at PLK1 kinase domain. Also, the IC50 in test [6] lay within 1 to 10 µM.
Take `COc1cc2ncn(-c3cc(OCc4ccccc4Br)c(C(N)=O)s3)c2cc1OC` [Example 65, 3-[(2-Bromobenzyl)oxy]-5-(5,6-dimethoxy-1H-benzimidazol-1-yl)thiophene-2-carboxamide]: the IC50 in test [1] is < 1 µM; in test [2] it was < 1 µM; in test [3], < 1 µM; in test [4] it was > 10 µM; in test [5], > 10 µM; at PLK1 kinase domain it was < 0.1 µM. Moreover, in test [6], the IC50 was < 1 µM.
Turning to `COc1cc2ncn(-c3cc(OCc4cccc(N(C)C)c4)c(C(N)=O)s3)c2cc1OC` [Example 90, 5-(5,6-Dimethoxy-1H-benzimidazol-1-yl)-3-{[3-(dimethylamino)benzyl]oxy}thiophene-2-carboxamide], the IC50 in test [1] was 1 to 10 µM; in test [2] it was 1 to 10 µM; in test [3], 1 to 10 µM; in test [4] it was > 10 µM; in test [5], > 10 µM; at PLK1 kinase domain, < 0.1 µM. Further, the IC50 in test [6] is 1 to 10 µM.
As for `C=Cc1ccccc1COc1cc(-n2cnc3cc(OC)c(OC)cc32)sc1C(N)=O` [Example 103, 5-(5,6-Dimethoxy-1H-benzimidazol-1-yl)-3-[(2-vinylbenzyl)oxy]thiophene-2-carboxamide], the IC50 is 1 to 10 µM in test [1]; 1 to 10 µM in test [2]; 1 to 10 µM in test [3]; > 10 µM in test [4]; > 10 µM in test [5]; < 0.1 µM at PLK1 kinase domain. The IC50 in test [6] fell in the range of 1 to 10 µM.

For the origin of these results see patent publication US20080269298A1, “Benzimidazol-1-YL-thiophene compounds for the treatment of cancer” (priority 2002, published 2008).
